Patent US11136351B2 (priority 2016, dated 2021)
Residues, ends and D or L forms follow the SMILES beside them.

Details: pH 1.2

Structure (SMILES): N=C(N)NCCC[C@@H]1NC(=O)[C@@H]2CCCN2C(=O)[C@H](CC(=O)O)NC(=O)[C@H](CO)NC(=O)[C@H](CO)NC(=O)[C@@H](NC(=O)CN)CSSC[C@@H](C(N)=O)NC1=O [[Ser^3]Vc1.1(1-8)] (HELM PEPTIDE1{G.C.S.S.D.P.R.C.[am]}$PEPTIDE1,PEPTIDE1,2:R3-8:R3$$$V2.0)
- stability in simulated gastric fluid: good stability
